Results published in US20210128609A1, “ONCOLOGY TREATMENTS USING ZINC AGENTS” (XYLONIX IP HOLDINGS PTE. LTD., priority 2018, published 2021).

Legend:
[1] = tested on: 50 cancer cell lines; assay: Genetic instability mutation analysis of 50 cell line IC50 distribution
Source text: Following the 50 cell line screening tests (OmniScreen™) described in Example 6, each cell line was catalogued (yes or no) for the presence of mutations in the following genes by consulting the OncoExpress™ database (Crown Biosciences Inc., Santa Clara, data accession date 18 May 2018˜30 May 2018). • MLH1 (part of the deficient mismatch repair—dMMR-mutations group) • MSH2 (part of the deficient mismatch repair—dMMR-mutations group) • PMS2 (part of the deficient mismatch repair—dMMR-mutations group) • PARP1 • BRCA1 (part of the BRCA1/BRCA2 mutations group) • BRCA2 (part of the BRCA1/BRCA2 mutations group) • TP53
The integrated data were then analyzed using Excel® software (Microsoft, Seattle). Briefly, the sorting algorithm of the Excel® software was used in grouping of the cell lines carrying certain mutations, and in further analysis of the IC50 distribution in each group.
The IC50 distributions among the cell line groups sharing certain genetic mutations were then analyzed for statistical significance.
Statistical analysis was performed using JMP 13 (SAS Institute Inc. Cary, N.C., USA) or Origin 9 (Origin Lab Corp., Northampton, Mass., USA). All data are represented as mean±standard error of the mean (SEM) and were tested for statistical significance using Mann-Whitney U test or analysis of variance (ANOVA). P-values of <0.05 were interpreted as statistically significant.

[2] = tested on: DU 145; assay: CellTiter-Glo cell viability, DU 145; format: cell-based
Protocol: (§1) The 50% inhibitory concentration (IC50) was determined in the cancer cell lines using CellTiter-Glo luminescent cell viability assay after incubation with different concentrations of active agents. Each cell line was treated with active Zn(II) agent, a standard chemotherapy drug as reference control, and culture medium as vehicle control. Cell Lines. All cell lines were cultured in media supplemented with 10-15% FBS, at a temperature of 37° C., 5% CO2, and 95% humidity. The reference control drug for all cell lines was cisplatin, to be used for genomic analysis. The cell lines tested, the tissue of origin are shown below in Table 1: Procedure for Determining Half Maximal Inhibition Concentration IC50 • 1. Harvested cells during the logarithmic growth period and count cell number using Count-star. • 2. Adjusted cell concentrations to 4.44×10^4 cells/mL with respective culture medium. • 3. Added 90 μL cell suspensions to two 96-well plates (plates A and B) with the final cell density of 4×10^3 cells/well. (cell concentration was adjusted according to the data base or density optimization assay.) • 4a. Next day: For the plates of TO reading: • 1) Added 10 μL culture medium to each well of plate A for TO reading. • 2) Equilibrated the plate and its content at RT for approximately 30 min. • 3) Added 50 μL CellTiter-Glo reagent to each well. • 4) Mixed content for 5 min on an orbital shaker to induce cell lysis. • 5) Allowed the plate to incubate at RT for 20 min to stabilize luminescent signal. • 6) Recorded luminescence (TO) using EnVision Multi Label Reader. • 4b. For the plates of test reading: • 1) Prepared 10× solution of Zn(II) agent test article. […] The formula for calculating surviving rate is shown below and the absolute IC50 (EC50) was calculated according to the dose-response curve generated by GraphPad Prism 5.0. • 12) The surviving rate (%)=(LumTest article−LumMedium control)/(LumNon-treated−LumMedium control)×100%.

[3] = tested on: WSU-NHL; assay: CellTiter-Glo cell viability, WSU-NHL; format: cell-based
Protocol: as §1

[4] = tested on: SU-DHL-6; assay: CellTiter-Glo cell viability, SU-DHL-6; format: cell-based
Protocol: as §1

[5] = tested on: SK-HEP-1; assay: CellTiter-Glo cell viability, SK-HEP-1; format: cell-based
Protocol: as §1

[6] = tested on: NCI-H929; assay: CellTiter-Glo cell viability, NCI-H929; format: cell-based
Protocol: as §1

[7] = tested on: MCF7; assay: CellTiter-Glo cell viability, MCF7; format: cell-based
Protocol: The 50% inhibitory concentration (IC50) was determined in the cancer cell lines using CellTiter-Glo luminescent cell viability assay after incubation with different concentrations of active agents. Each cell line was treated with active Zn(II) agent, a standard chemotherapy drug as reference control, and culture medium as vehicle control. Cell Lines. All cell lines were cultured in media supplemented with 10-15% FBS, at a temperature of 37° C., 5% CO2, and 95% humidity. The reference control drug for all cell lines was cisplatin, to be used for genomic analysis. The cell lines tested, the tissue of origin are shown below in Table 1: Procedure for Determining Half Maximal Inhibition Concentration IC50 • 1. Harvested cells during the logarithmic growth period and count cell number using Count-star. • 2. Adjusted cell concentrations to 4.44×10^4 cells/mL with respective culture medium. • 3. Added 90 μL cell suspensions to two 96-well plates (plates A and B) with the final cell density of 4×10^3 cells/well. (cell concentration was adjusted according to the data base or density optimization assay.) • 4a. […]

[8] = tested on: NALM-6; assay: CellTiter-Glo cell viability, NALM-6; format: cell-based
Protocol: as §1

[9] = tested on: JVM-3; assay: CellTiter-Glo cell viability, JVM-3; format: cell-based
Protocol: as §1

[10] = tested on: AsPC-1; assay: CellTiter-Glo cell viability, AsPC-1; format: cell-based
Protocol: as §1

[11] = 96 h, top conc. 50 μg/mL Zn(II) agent, 100 μM cisplatin

Q: For N.N.[Cl][Pt][Cl] [Cisplatin], which “effect of CREBBPmt-KRASmt-BRCA1WT combination on sensitivity” value [1] is on record?
A: strong resistance

Q: What about the “Absolute IC50” value ([2]; 96 h, CellTiter-Glo) of the same compound?
A: 0.20 µg/mL

Q: What about the “% inhibition at top conc.” value [2, 11] of the same compound?
A: 99.24%

Q: What about the HillSlope ([2]; 96 h dose-response fit) of the same compound?
A: −2.37

Q: What about the “Absolute IC50” value ([3]; 96 h, CellTiter-Glo) of the same compound?
A: 0.06 µg/mL

Q: What about the “% inhibition at top conc.” value [3, 11] of the same compound?
A: 99.99%

Q: What about the HillSlope ([3]; 96 h dose-response fit) of the same compound?
A: −1.77

Q: And the “Absolute IC50” value ([4]; 96 h, CellTiter-Glo)?
A: 0.38 µg/mL

Q: And the “% inhibition at top conc.” value [4, 11]?
A: 99.99%

Q: What about the HillSlope ([4]; 96 h dose-response fit) of the same compound?
A: −1.11

Q: And the “Absolute IC50” value ([5]; 96 h, CellTiter-Glo)?
A: 2.13 µg/mL

Q: What about the “% inhibition at top conc.” value [5, 11] of the same compound?
A: 99.93%

Q: And the HillSlope ([5]; 96 h dose-response fit)?
A: −1.28

Q: What about the “Absolute IC50” value ([6]; 96 h, CellTiter-Glo) of the same compound?
A: 0.64 µg/mL

Q: What about the “% inhibition at top conc.” value [6, 11] of the same compound?
A: 99.98%

Q: What about the HillSlope ([6]; 96 h dose-response fit) of the same compound?
A: −1.83

Q: What about the “% inhibition at top conc.” value [7, 11] of the same compound?
A: 96.37%

Q: What about the HillSlope ([7]; 96 h dose-response fit) of the same compound?
A: −0.60

Q: What about the “Absolute IC50” value ([8]; 96 h, CellTiter-Glo) of the same compound?
A: 0.21 µg/mL

Q: And the “% inhibition at top conc.” value [8, 11]?
A: 99.64%

Q: What about the HillSlope ([8]; 96 h dose-response fit) of the same compound?
A: −2.22

Q: What about the “Absolute IC50” value ([9]; 96 h, CellTiter-Glo) of the same compound?
A: 0.14 µg/mL

Q: And the “% inhibition at top conc.” value [9, 11]?
A: 99.99%

Q: And the HillSlope ([9]; 96 h dose-response fit)?
A: −1.70

Q: And the “Absolute IC50” value ([10]; 96 h, CellTiter-Glo)?
A: 0.67 µg/mL

Q: And the “% inhibition at top conc.” value [10, 11]?
A: 81.58%

Q: And the HillSlope ([10]; 96 h dose-response fit)?
A: −1.47
